The text below walks through data of patent US20260207615A1, “FLUOROPYRIDOPYRIMIDINE AND FLUOROQUINAZOLINE DERIVATIES AND METHODS OF USE THEREOF” (Frontier Medicines Corporation, priority 2022, published 2026).

Structures are written as SMILES.

T1 sequence (P01116 1-169 isoform P01116-2 G12C/C51S/C80L/C118S): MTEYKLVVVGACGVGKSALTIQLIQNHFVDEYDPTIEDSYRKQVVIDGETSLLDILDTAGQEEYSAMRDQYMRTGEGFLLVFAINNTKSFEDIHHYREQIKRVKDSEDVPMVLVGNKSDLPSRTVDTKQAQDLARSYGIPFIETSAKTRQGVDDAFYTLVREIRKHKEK

This assay concerns the target T1, KRAS G12C and cRAF interaction (Homo sapiens, UniProt P01116, C118S/C51S/C80L/G12C).
T1 construct: truncated version comprising amino acids 1-169
As to the kind of experiment: Inhibition of KRAS G12C and cRAF binding (AlphaScreen). It is filed as biochemical. The settings on record: KRAS G12C (Cys-light, aa 1-169) preloaded with GMPPNP, cRaf RBD (aa 50-131), 2 hours incubation. The essentials:
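Biotin-AviTag KRAS G12C (Cys-light C51S/C80L/C118S, aa 1-169, GMPPNP-loaded; 0.5 nM final)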
(In Alpha technology, singlet oxygen from a donor bead excites a nearby acceptor bead.)
`C#Cc1c(F)ccc2cccc(-c3ncc4c(N5CCN(C(=O)/C=C/CN6C[C@H]7C[C@@H]6CO7)C6(COC6)C5)nc(OC[C@@]56CCCN5C[C@H](F)C6)nc4c3F)c12` [Example 46, (E)-4-((1R,4R)-2-oxa-5-azabicyclo[2.2.1]heptan-5-yl)-1-(8-(7-(8-ethynyl-7-fluoronaphthalen-1-yl)-8-fluoro-2-(((2R,7aS)-2-fluorotetrahydro-1H-pyrrolizin-7a(5H)-yl)methoxy)pyrido[4,3-d]pyrimidin-4-yl)-2-oxa-5,8-diazaspiro[3.5]nonan-5-yl) but-2-en-1-one]: the IC50 – broadly, the point on the concentration scale where inhibition reaches its midpoint – is below 10 nM. For `C#Cc1c(F)ccc2cccc(-c3ncc4c(N5CCN(C(=O)/C=C/[C@H]6CCN6C)C6(COC6)C5)nc(OC[C@@]56CCCN5C[C@H](F)C6)nc4c3F)c12` [Example 66] the value was 10 to 100 nM. Turning to `C=CC(=O)N1CCN(c2nc(OC[C@@]34CCCN3C[C@H](F)C4)nc3c(F)c(-c4cccc5cccc(Cl)c45)ncc23)C[C@]12CCOC2` [Example 89], the IC50 is at least 500 nM. The same measure for `CN(C)C/C=C/C(=O)N1CCN(c2nc(OC[C@@]34CCCN3C[C@H](F)C4)nc3c(F)c(-c4cc(O)cc(Cl)c4C4CC4)ncc23)CC12COC2` [Example 55, (E)-1-(8-(7-(3-chloro-2-cyclopropyl-5-hydroxyphenyl)-8-fluoro-2-(((2R,7aS)-2-fluorotetrahydro-1H-pyrrolizin-7a(5H)-yl)methoxy)pyrido[4,3-d]pyrimidin-4-yl)-2-oxa-5,8-diazaspiro[3.5]nonan-5-yl)-4-(dimethylamino)but-2-en-1-one]: below 10 nM; for `C=CC(=O)N1CCN(c2nc(OC[C@@H]3CCCN3C)nc3c(F)c(-c4cccc5cccc(Cl)c45)ncc23)CC12COC2` [Example 1, (S)-1-(8-(7-(8-chloronaphthalen-1-yl)-8-fluoro-2-((1-methylpyrrolidin-2-yl)methoxy)pyrido[4,3-d]pyrimidin-4-yl)-2-oxa-5,8-diazaspiro[3.5]nonan-5-yl) prop-2-en-1-one]: 100 to 500 nM.

`Cc1cc(/C=C/C(=O)N2CCN(c3nc(OC[C@@]45CCCN4C[C@H](F)C5)nc4c(F)c(-c5cccc(Cl)c5C5CC5)ncc34)CC23COC3)nc(C)n1` [Example 28, (E)-1-(8-(7-(3-chloro-2-cyclopropylphenyl)-8-fluoro-2-(((2R,7aS)-2-fluorotetrahydro-1H-pyrrolizin-7a(5H)-yl)methoxy)pyrido[4,3-d]pyrimidin-4-yl)-2-oxa-5,8-diazaspiro[3.5]nonan-5-yl)-3-(2,6-dimethylpyrimidin-4-yl) prop-2-en-1-one] displayed an IC50 of at least 500 nM.

Compound `C=CC(=O)N1CCN(c2nc(OC[C@@]34CCCN3C[C@H](F)C4)nc3c(F)c(-c4n[nH]c5cccc(Cl)c45)ncc23)CC12COC2` [Example 75] showed an IC50 of at least 500 nM. For `CN1CC[C@@H]1/C=C/C(=O)N1CCN(c2nc(OC[C@@]34CCCN3C[C@H](F)C4)nc3c(F)c(-c4cc(O)cc(Cl)c4C4CC4)ncc23)CC12COC2` [Example 73, (E)-1-(8-(7-(3-chloro-2-cyclopropyl-5-hydroxyphenyl)-8-fluoro-2-(((2R,7aS)-2-fluorotetrahydro-1H-pyrrolizin-7a(5H)-yl)methoxy)pyrido[4,3-d]pyrimidin-4-yl)-2-oxa-5,8-diazaspiro[3.5]nonan-5-yl)-3-((R)-1-methylazetidin-2-yl) prop-2-en-1-one] the value was below 10 nM; for `Cc1nccc(/C=C/C(=O)N2CCN(c3nc(OC[C@@]45CCCN4C[C@H](F)C5)nc4c(F)c(-c5cc(O)cc(Cl)c5C5CC5)ncc34)CC23COC3)n1` [Example 41, (E)-1-(8-(7-(3-chloro-2-cyclopropyl-5-hydroxyphenyl)-8-fluoro-2-(((2R,7aS)-2-fluorotetrahydro-1H-pyrrolizin-7a(5H)-yl)methoxy)pyrido[4,3-d]pyrimidin-4-yl)-2-oxa-5,8-diazaspiro[3.5]nonan-5-yl)-3-(2-methylpyrimidin-4-yl) prop-2-en-1-one], below 10 nM; for `Cc1nccc(/C=C/C(=O)N2CCN(c3nc(OC[C@@]45CCCN4C[C@H](F)C5)nc4c(F)c(-c5cccc6ccc(F)c(F)c56)ncc34)CC23COC3)n1` [Example 5, (E)-1-(8-(7-(7,8-difluoronaphthalen-1-yl)-8-fluoro-2-(((2R,7aS)-2-fluorotetrahydro-1H-pyrrolizin-7a(5H)-yl)methoxy)pyrido[4,3-d]pyrimidin-4-yl)-2-oxa-5,8-diazaspiro[3.5]nonan-5-yl)-3-(2-methylpyrimidin-4-yl) prop-2-en-1-one], 10 to 100 nM. For `O=C(/C=C/CN1CC2CC(C1)O2)N1CCN(c2nc(OC[C@@]34CCCN3C[C@H](F)C4)nc3c(F)c(-c4cccc(Cl)c4C(F)(F)F)ncc23)CC12COC2` [Example 77] the value was 10 to 100 nM; for `O=C(/C=C/CN1C[C@H]2C[C@@H]1CO2)N1CCN(c2nc(OC[C@@]34CCCN3C[C@H](F)C4)nc3c(F)c(-c4cccc5ccc(F)c(F)c45)ncc23)CC12COC2` [Example 19, (E)-4-((1R,4R)-2-oxa-5-azabicyclo[2.2.1]heptan-5-yl)-1-(8-(7-(7,8-difluoronaphthalen-1-yl)-8-fluoro-2-(((2R,7aS)-2-fluorotetrahydro-1H-pyrrolizin-7a(5H)-yl)methoxy)pyrido[4,3-d]pyrimidin-4-yl)-2-oxa-5,8-diazaspiro[3.5]nonan-5-yl) but-2-en-1-one], below 10 nM. `C=C(F)C(=O)N1CCN(c2nc(OC[C@@]34CCCN3C[C@H](F)C4)nc3c(F)c(-c4cc(O)cc(Cl)c4C4CC4)ncc23)CC12COC2` [Example 79] displayed an IC50 of at least 500 nM. For `CCc1c(F)ccc2cccc(-c3ncc4c(N5CCN(C(=O)/C(F)=C/c6ccnc(C)n6)C6(COC6)C5)nc(OC[C@@]56CCCN5C[C@H](F)C6)nc4c3F)c12` [Example 62, (Z)-1-(8-(7-(8-ethyl-7-fluoronaphthalen-1-yl)-8-fluoro-2-(((2R,7aS)-2-fluorotetrahydro-1H-pyrrolizin-7a(5H)-yl)methoxy)pyrido[4,3-d]pyrimidin-4-yl)-2-oxa-5,8-diazaspiro[3.5]nonan-5-yl)-2-fluoro-3-(2-methylpyrimidin-4-yl) prop-2-en-1-one] the value was below 10 nM; for `C#Cc1c(F)ccc2cccc(-c3ncc4c(N5CCN(C(=O)/C(F)=C/c6cc(C)nc(C)n6)C6(COC6)C5)nc(OC[C@@]56CCCN5C[C@H](F)C6)nc4c3F)c12` [Example 63, (Z)-3-(2,6-dimethylpyrimidin-4-yl)-1-(8-(7-(8-ethynyl-7-fluoronaphthalen-1-yl)-8-fluoro-2-(((2R,7aS)-2-fluorotetrahydro-1H-pyrrolizin-7a(5H)-yl)methoxy)pyrido[4,3-d]pyrimidin-4-yl)-2-oxa-5,8-diazaspiro[3.5]nonan-5-yl)-2-fluoroprop-2-en-1-one], below 10 nM; for `CN1CC[C@@H]1/C=C/C(=O)N1CCN(c2nc(OC[C@@]34CCCN3C[C@H](F)C4)nc3c(F)c(-c4cccc5cccc(Cl)c45)ncc23)CC12COC2` [Example 37, (E)-1-(8-(7-(8-chloronaphthalen-1-yl)-8-fluoro-2-(((2R,7aS)-2-fluorotetrahydro-1H-pyrrolizin-7a(5H)-yl)methoxy)pyrido[4,3-d]pyrimidin-4-yl)-2-oxa-5,8-diazaspiro[3.5]nonan-5-yl)-3-((R)-1-methylazetidin-2-yl) prop-2-en-1-one], 10 to 100 nM.

`C=CC(=O)N1CCN(c2nc(OC[C@@]34CCCN3C[C@H](F)C4)nc3c(F)c(-c4cccc5ccc(F)c(F)c45)ncc23)C[C@]12CCOC2` [Example 81] came in with an IC50 of at least 500 nM. The same measure for `C#Cc1c(F)ccc2cccc(-c3ncc4c(N5CCN(C(=O)/C=C/CN6CC[C@@H](OC)C6)C6(COC6)C5)nc(OC[C@@]56CCCN5C[C@H](F)C6)nc4c3F)c12` [Example 43, (E)-1-(8-(7-(8-ethynyl-7-fluoronaphthalen-1-yl)-8-fluoro-2-(((2R,7aS)-2-fluorotetrahydro-1H-pyrrolizin-7a(5H)-yl)methoxy)pyrido[4,3-d]pyrimidin-4-yl)-2-oxa-5,8-diazaspiro[3.5]nonan-5-yl)-4-((R)-3-methoxypyrrolidin-1-yl) but-2-en-1-one]: 10 to 100 nM; for `Cc1nccc(/C=C/C(=O)N2CCN(c3nc(OCC45CCCN4CCC5)nc4c(F)c(-c5cccc6ccc(F)c(Cl)c56)ncc34)CC23COC3)n1` [Example 11, (E)-1-(8-(7-(8-chloro-7-fluoronaphthalen-1-yl)-8-fluoro-2-((tetrahydro-1H-pyrrolizin-7a(5H)-yl)methoxy)pyrido[4,3-d]pyrimidin-4-yl)-2-oxa-5,8-diazaspiro[3.5]nonan-5-yl)-3-(2-methylpyrimidin-4-yl) prop-2-en-1-one]: 100 to 500 nM. Regarding `C=CC(=O)N1CCN(c2nc(OC[C@@]34CCCN3C[C@H](F)C4)nc3c(F)c(-c4cccc5cccc(Cl)c45)ncc23)CC12COC2` [Example 17, 1-(8-(7-(8-chloronaphthalen-1-yl)-8-fluoro-2-(((2R,7aS)-2-fluorotetrahydro-1H-pyrrolizin-7a(5H)-yl)methoxy)pyrido[4,3-d]pyrimidin-4-yl)-2-oxa-5,8-diazaspiro[3.5]nonan-5-yl) prop-2-en-1-one], the IC50 is 10 to 100 nM. For `C=CC(=O)N1C(C)CN(c2nc(OC[C@@]34CCCN3C[C@H](F)C4)nc3c(F)c(-c4cccc5cccc(Cl)c45)ncc23)CC12COC2` (stereo partly drawn) [Example 53, 1-(8-(7-(8-chloronaphthalen-1-yl)-8-fluoro-2-(((2R,7aS)-2-fluorotetrahydro-1H-pyrrolizin-7a(5H)-yl)methoxy)pyrido[4,3-d]pyrimidin-4-yl)-6-methyl-2-oxa-5,8-diazaspiro[3.5]nonan-5-yl) prop-2-en-1-one] the value was 10 to 100 nM.

In the case of `O=C(/C=C/CN1C[C@H]2C[C@@H]1CO2)N1CCN(c2nc(OC[C@@]34CCCN3C[C@H](F)C4)nc3c(F)c(-c4cccc5ccc(F)c(Cl)c45)ncc23)CC12COC2` [Example 9, (E)-4-((1R,4R)-2-oxa-5-azabicyclo[2.2.1]heptan-5-yl)-1-(8-(7-(8-chloro-7-fluoronaphthalen-1-yl)-8-fluoro-2-(((2R,7aS)-2-fluorotetrahydro-1H-pyrrolizin-7a(5H)-yl)methoxy)pyrido[4,3-d]pyrimidin-4-yl)-2-oxa-5,8-diazaspiro[3.5]nonan-5-yl) but-2-en-1-one], the IC50 was below 10 nM.
